Test results published in patent EP1184374A1, “Carboxamide derivatives of pyrrolidine, piperidine and hexahydroazepine for the treatment of thrombosis disorders” (ORTHO PHARMACEUTICAL CORPORATION, priority 1996, dated 1997).
“And” between values parts separate entries of the source, which are not always exact repeats. Equal entries are not always repeated.

What was measured:
[1] = system: collagen- or ADP-induced ex vivo platelet aggregation; experiment: Ex vivo dog study (platelet aggregation, hemodynamics, bleeding time, coagulation, cell counts); type: in vivo, dogs
Method: Adult mongrel dogs (8-13 kg) were anesthetized with sodium pentobarbital (35 mg/kg, i.v.) and artificially respired. Arterial blood pressure and heart rate were measured using a Millar catheter-tip pressure transducer inserted in a femoral artery. Another Millar transducer was placed in the left ventricle (LV) via a carotid artery to measure LV end diastolic pressure and indices of myocardial contractility. A lead II electrocardiogram was recorded from limb electrodes. Catheters were placed in a femoral artery and vein to sample blood and infuse drugs, respectively. Responses were continuously monitored using a Modular Instruments data aquisition system.
Arterial blood samples (5-9 ml) were withdrawn into tubes containing 3.8% sodium citrate to prepare platelet rich plasma (PRP) and to determine effects on coagulation parameters: prothrombin time (PT) and activated partial thromboplastin time (APTT). Separate blood samples (1.5 ml) were withdrawn in EDTA to determine hematocrit and cell counts (platelets, RBC's and white cells). Template bleeding times were obtained from the buccal surface using a symplate incision devise and Whatman filter paper.
Aggregation of PRP was performed using a BioData aggregometer. Aggregation of whole blood used a Chronolog impedance aggregometer. PT and APTT were determined on either a BioData or ACL 3000+ coagulation analyser. Cells were counted with a Sysmex K-1000.
Compounds were solubilized in a small volume of dimethylformamide (DMF) and diluted with saline to a final concentration of 10% DMF. Compounds were administered by the intravenous route with a Harvard infusion pump. Doses was administered over a 15 min interval at a constant rate of 0.33 ml/min. Data were obtained after each dose and in 30 min intervals following the end of drug administration. Oral doses were administered as aqueous solutions via syringe.

gel-filtered platelets = experiment: In vitro inhibition of thrombin-induced gel-filtered platelet aggregation; type: cell-based; conditions: Homo sapiens; for inhibition at 50 µM: read-out: Platelet Aggregation % Inh. (50µM)
Method: IN VITRO INHIBITION OF THROMBIN-INDUCED GEL-FILTERED PLATELET AGGREGATION ASSAY.
The percentage of platelet aggregation is calculated as an increase in light transmission of compound-treated platelet concentrate vs. control-treated platelet concentrate. Human blood is obtained from drug free, normal donors into tubes containing 0.13M sodium citrate. Platelet rich plasma (PRP) is collected by centrifugation of whole blood at 200 x g for 10 min at 25°C. The PRP (5 mL) is gel filtered through Sepharose 2B (bed volume 50 mL), and the platelet count is adjusted to 2x10^7 platelets per sample. The following constituents are added to a siliconized cuvette: concentrated platelet filtrate and Tyrode's buffer (0.14M NaCl, 0.0027MKCl, 0.012M NaHCO3, 0.76 mM Na2HPO4, 0.0055M glucose, 2 mg/mL BSA and 5.0mM HEPES @ pH 7.4) in an amount equal to 350 µl, 50 µl of 20 mM calcium and 50 µl of the test compound. Aggregation is monitored in a BIODATA aggregometer for the 3 min following the addition of agonist (thrombin 50 µl of 1 unit/mL).

GPIIb/IIIa = GPIIb/IIIa (Homo sapiens, UniProt P05106+P08514); experiment: In vitro solid phase purified glycoprotein IIb/IIIa binding assay (biotinylated fibrinogen binding); conditions: for inhibition at 50 µM: read-out: Fibrinogen Binding % Inh. (50 µM)
Method: IN VITRO SOLID PHASE PURIFIED GLYCOPROTEIN IIB/IIIA BINDING ASSAY.
The plate is covered and incubated overnight at 4°C. The GPIIb/IIa solution is discarded and 150 µl of 5% BSA is added and incubated at RT for 1-3 h. The plate is washed extensively with modified Tyrodes buffer. Biotinylated fibrinogen (25 µl/well) at 2 x final concentration is added to the wells that contain the test compounds (25 µl/well). The plate is covered and incubated at RT for 2-4 h. Twenty minutes prior to incubation completion, one drop of Reagent A (Vecta Stain ABC Horse Radish Peroxidase kit, Vector Laboratories, Inc.) and one drop Reagent B are added with mixing to 5 mL modified Tyrodes buffer mix and let stand. The ligand solution is discarded and the plate washed (5 x 200 µl/well) with modified Tyrodes buffer. Vecta Stain HRP-Biotin-Avidin reagent (50 µl/well, as prepared above) is added and incubated at RT for 15 min. The Vecta Stain solution is discarded and the wells washed (5 x 200 µl/well) with modified Tyrodes buffer. Developing buffer (10 mL of 50 mM citrate/phosphate buffer @ pH 5.3, 6 mg o-phenylenediamine, 6 µl 30% H2O2; 50 µl/well) is added and incubated at RT for 3-5 min, and then 2N H2SO4 (50 µl/well) is added. The absorbance is read at 490 nm.

thrombus formation = experiment: Canine arteriovenous shunt model of thrombosis; type: in vivo
Method: For instance, compound 16 inhibits thrombus formation at 10, 30, and 100 µg/kg/min cumulative doses by iv infusion (75%, 37%, 12% of thrombus weight vs. vehicle control, respectively). Compound 18 inhibits thrombus formation at 3, 10, and 30 µg/kg/min cumulative doses by iv infusion (82%, 41%, 12% of thrombus weight vs. vehicle control, respectively).

Sequence of GPIIb/IIIa (P08514 32-887 limits assumed): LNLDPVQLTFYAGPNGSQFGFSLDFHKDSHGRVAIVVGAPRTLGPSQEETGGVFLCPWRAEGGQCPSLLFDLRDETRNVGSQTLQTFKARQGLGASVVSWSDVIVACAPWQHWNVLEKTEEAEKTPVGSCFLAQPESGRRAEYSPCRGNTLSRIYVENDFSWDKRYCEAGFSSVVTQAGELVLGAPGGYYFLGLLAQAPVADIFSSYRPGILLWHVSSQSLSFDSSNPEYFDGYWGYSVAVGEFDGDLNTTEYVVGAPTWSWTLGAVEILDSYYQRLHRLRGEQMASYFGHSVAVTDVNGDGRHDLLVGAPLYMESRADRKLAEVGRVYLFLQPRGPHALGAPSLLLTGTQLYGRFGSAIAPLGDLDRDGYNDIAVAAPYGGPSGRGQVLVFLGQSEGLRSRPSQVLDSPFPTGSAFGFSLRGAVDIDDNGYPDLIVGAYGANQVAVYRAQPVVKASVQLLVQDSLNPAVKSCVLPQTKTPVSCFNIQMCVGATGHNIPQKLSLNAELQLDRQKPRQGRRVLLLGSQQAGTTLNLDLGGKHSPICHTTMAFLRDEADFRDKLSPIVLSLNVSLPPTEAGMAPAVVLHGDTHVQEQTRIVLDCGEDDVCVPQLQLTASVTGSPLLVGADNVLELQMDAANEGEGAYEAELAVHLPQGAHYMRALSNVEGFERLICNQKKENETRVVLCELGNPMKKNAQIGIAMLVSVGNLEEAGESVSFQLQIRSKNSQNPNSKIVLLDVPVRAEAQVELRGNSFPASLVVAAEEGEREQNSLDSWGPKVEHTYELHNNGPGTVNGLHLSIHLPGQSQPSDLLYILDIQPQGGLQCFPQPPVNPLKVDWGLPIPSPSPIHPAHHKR
Sequence of GPIIb/IIIa (P08514 891-1039 partner limits assumed): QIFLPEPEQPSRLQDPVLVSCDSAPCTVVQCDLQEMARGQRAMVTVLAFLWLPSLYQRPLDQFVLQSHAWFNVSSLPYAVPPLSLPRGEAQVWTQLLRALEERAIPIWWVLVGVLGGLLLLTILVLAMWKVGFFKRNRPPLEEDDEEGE
Sequence of GPIIb/IIIa (P05106 27-788): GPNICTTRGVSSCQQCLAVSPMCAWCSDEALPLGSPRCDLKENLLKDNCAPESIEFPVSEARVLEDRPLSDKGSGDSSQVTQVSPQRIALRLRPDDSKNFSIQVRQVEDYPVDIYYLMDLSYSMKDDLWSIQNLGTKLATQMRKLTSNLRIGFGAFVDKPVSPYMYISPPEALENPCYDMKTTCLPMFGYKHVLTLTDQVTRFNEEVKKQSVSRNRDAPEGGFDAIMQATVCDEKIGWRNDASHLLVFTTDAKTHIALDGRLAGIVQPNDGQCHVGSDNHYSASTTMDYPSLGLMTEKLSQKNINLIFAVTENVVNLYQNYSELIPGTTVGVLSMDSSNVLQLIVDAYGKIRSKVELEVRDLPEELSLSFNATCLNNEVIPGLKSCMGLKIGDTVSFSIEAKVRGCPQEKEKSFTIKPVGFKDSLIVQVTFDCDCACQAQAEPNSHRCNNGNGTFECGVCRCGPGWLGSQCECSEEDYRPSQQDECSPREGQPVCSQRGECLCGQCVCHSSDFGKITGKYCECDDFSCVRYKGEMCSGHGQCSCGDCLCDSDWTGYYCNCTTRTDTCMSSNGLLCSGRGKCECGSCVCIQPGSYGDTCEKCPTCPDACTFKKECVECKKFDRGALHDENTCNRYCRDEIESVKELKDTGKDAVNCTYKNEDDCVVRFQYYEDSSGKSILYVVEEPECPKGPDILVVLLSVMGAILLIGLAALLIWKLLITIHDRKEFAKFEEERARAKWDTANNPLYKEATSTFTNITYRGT

| Structure (SMILES) | IC50 (gel-filtered platelets) | inhibition at 50 µM (GPIIb/IIIa) | IC50 (GPIIb/IIIa) | Duration of >50% inhibition of collagen-induced ex vivo platelet aggregation ([1]; intravenous dosing 0.3 mpk) | Duration of >50% inhibition of collagen-induced ex vivo platelet aggregation ([1]; oral dosing 3 mpk) | inhibition at 50 µM (gel-filtered platelets) | further results |
| --- | --- | --- | --- | --- | --- | --- | --- |
| O=C(N[C@@H](CNC(=O)[C@@H]1CCCN(C(=O)CCC2CCNCC2)C1)C(=O)O)OCc1ccccc1 [Compound 23, N-3-(4-Piperidinepropionyl)-R-(-)nipecotyl-[(S)-2-benzyloxycarbonylamino-3-amino]propionic acid] | 27 nM | 100% | – | – | 150 min | 97% | Duration of >50% inhibition of collagen-induced ex vivo platelet aggregation ([1]; intravenous dosing 0.1 mpk): 60 min; Duration of >50% inhibition of collagen-induced ex vivo platelet aggregation ([1]; oral dosing 1 mpk): 180 min |
| CN1CCN(CCC(=O)N2CCCC(C(=O)NC(CC(=O)O)c3cnc4ccccc4c3)C2)CC1 (stereo not drawn) [Compound 15, N-3-(4-N-Methyl-piperazinepropionyl)-nipecotyl-[3-amino-3-(3-quinolinyl)]propionic acid] | 1900 nM | 100% | 9.1 nM | – | – | 92.2% | Duration of >50% inhibition of collagen- or ADP-induced ex vivo platelet aggregation ([1]; intravenous dosing 1 mpk): 30 min; Duration of >50% inhibition of collagen- or ADP-induced ex vivo platelet aggregation ([1]; oral dosing 10 mpk): 120 min |
| O=C(Nc1ccc2ccccc2c1)N[C@@H](CNC(=O)[C@@H]1CCCN(C(=O)CCC2CCNCC2)C1)C(=O)O [Compound 28, N-3-(4-Piperidinepropionyl)-R-(-)nipecotyl-[(S)-2-(2-naphthylamino)carbonylamino-3-amino]propionic acid] | 170 nM | 100% | – | – | 120 min | 100% | – |
| CC(C)(C)C#CC(CC(=O)O)NC(=O)C1CCCN(C(=O)CCC2CCNCC2)C1 (single isomer, unassigned) [Compound 19] | 79 nM | 99% | 21 nM | – | – | 92.1% | Duration of >50% inhibition of collagen- or ADP-induced ex vivo platelet aggregation ([1]; intravenous dosing 1 mpk): 30 min; Duration of >50% inhibition of collagen- or ADP-induced ex vivo platelet aggregation ([1]; oral dosing 10 mpk): 90 min |
| COc1cccc(NC(=O)N[C@@H](CNC(=O)[C@@H]2CCCN(C(=O)CCC3CCNCC3)C2)C(=O)O)c1 [Compound 22, N-3-(4-Piperidinepropionyl)-R-(-)nipecotyl-[(S)-2-(3-methoxyanilino)carbonylamino-3-amino]propionic acid] | 46 nM | 100% | – | 180 min | 60 min | 94% | – |
| O=C(O)C[C@H](NC(=O)[C@@H]1CCCN(C(=O)CCC2CCNCC2)C1)c1cccnc1 [Compound 21, N-3-(4-Piperidinepropionyl)-R-(-)-nipecotyl-[(S)-3-amino-3-(3-pyridyl)] propionic acid] | 60 nM | 100% | – | – | – | 100% | Duration of >50% inhibition of collagen- or ADP-induced ex vivo platelet aggregation ([1]; intravenous dosing 0.3 mpk): 150 min; Duration of >50% inhibition of collagen- or ADP-induced ex vivo platelet aggregation ([1]; oral dosing 1 mpk): 180 min |
| O=C(N[C@@H](CNC(=O)[C@@H]1CCCN(C(=O)CCC2CCNCC2)C1)C(=O)O)OCc1cccc(Cl)c1 [Compound 24, N-3-(4-Piperidinepropionyl)-R-(-)nipecotyl-[(S)-2-(3-chlorobenzyloxy)carbonylamino-3-amino]propionic acid] | 18 nM | 100% | 0.4 nM | 90 min | 120 min | 100% | – |
| O=C(O)CC(NC(=O)C1CCCN(C(=O)CCC2CCNCC2)C1)c1ccc2c(c1)OCO2 [Compound 16, N-3-(4-Piperidinepropionyl)-R-(-)-nipecotyl-[(S)-3-amino-3-(3,4-methylenedioxyphenyl)]propionic acid] | 28 nM | 100% | 0.5 nM | – | – | 94% | Duration of >50% inhibition of collagen- or ADP-induced ex vivo platelet aggregation ([1]; intravenous dosing 0.1 mpk): 60 min; Duration of >50% inhibition of collagen- or ADP-induced ex vivo platelet aggregation ([1]; oral dosing 1 mpk): 60 min; Duration of >50% inhibition of collagen- or ADP-induced ex vivo platelet aggregation ([1]; oral dosing 3 mpk): >180 min; % of thrombus weight vs. vehicle control (thrombus formation; 10 µg/kg/min cumulative dose by iv infusion): 75%; % of thrombus weight vs. vehicle control (thrombus formation; 30 µg/kg/min cumulative dose by iv infusion): 37%; % of thrombus weight vs. vehicle control (thrombus formation; 100 µg/kg/min cumulative dose by iv infusion): 12% |
| O=C(NCCc1ccccc1)N[C@@H](CNC(=O)[C@@H]1CCCN(C(=O)CCC2CCNCC2)C1)C(=O)O [Compound 30, N-3-(4-Piperidinepropionyl)-R-(-)nipecotyl-[(S)-2-(2-phenethylamino)carbonylamino-3-amino]propionic acid] | 190 nM | 100% | – | 105 min | 180 min | 100% | – |

Continued by falling IC50 (gel-filtered platelets), values first:

| IC50 (gel-filtered platelets) | inhibition at 50 µM (GPIIb/IIIa) | IC50 (GPIIb/IIIa) | Structure (SMILES) | Duration of >50% inhibition of collagen-induced ex vivo platelet aggregation ([1]; intravenous dosing 0.3 mpk) | Duration of >50% inhibition of collagen-induced ex vivo platelet aggregation ([1]; oral dosing 3 mpk) | inhibition at 50 µM (gel-filtered platelets) | further results |
| --- | --- | --- | --- | --- | --- | --- | --- |
| 450 nM | 100% | – | O=C(O)C[C@H](NC(=O)[C@@H]1CCCN(C(=O)N2CCC(C3CCNCC3)CC2)C1)c1cccnc1 [Compound 27, N-[(4,4'-Bipiperidin-1-yl-)carbonyl]-R-(-)-nipecotyl-[(S)-3-amino-3-(3-pyridyl)] propionic acid] | 60 min | 120 min | 100% | – |
| 45 nM | 100% | – | Cc1ccc([C@H](CC(=O)O)NC(=O)[C@@H]2CCCN(C(=O)CCC3CCNCC3)C2)cn1 [Compound 31, N-3-(4-Piperidinepropionyl)-R-(-)nipecotyl-[(S)-3-amino-3-(6-methyl-3-pyridyl)]propionic acid] | – | – | 100% | Duration of >50% inhibition of collagen-induced ex vivo platelet aggregation ([1]; intravenous dosing 0.3 mpk, 0.3 mg/kg): 120 min and 60 min; Duration of >50% inhibition of collagen-induced ex vivo platelet aggregation ([1]; oral dosing 3 mpk, 3 mg/kg): >180 min and 180 min |
| 16 nM | 100% | – | COc1cc(NC(=O)N[C@@H](CNC(=O)[C@@H]2CCCN(C(=O)CCC3CCNCC3)C2)C(=O)O)cc(OC)c1 [Compound 26, N-3-(4-Piperidinepropionyl)-R-(-)nipecotyl-[(S)-2-(3,5-dimethoxyanllino)carbonylamino-3-amino]propionic acid] | – | 60 min | 97% | – |
| 7 nM | 100% | – | O=C(NC[C@H](NS(=O)(=O)Cc1ccccc1)C(=O)O)[C@@H]1CCCN(C(=O)CCC2CCNCC2)C1 [Compound 25, N-3-(4-Piperidinepropionyl)-R-(-)nipecotyl-[(S)-2-benzylsulfonylamino-3-amino]propionic acid] | 30 min | 60 min | 97% | – |
